Laboratory results as given in PMC11272733, “In vitro assessment of thyroid peroxidase inhibition by chemical exposure: comparison of cell models and detection methods” (Archives of Toxicology, 2024).
Read-outs that look alike come from different tables or passages of the source.

How the values were obtained:
TPO (CHO-TPO) = test system: TPO (CHO-TPO); parameters: method as in Dong et al. (2020); conditions: ref Dong et al. (2020); read-out: AUR assay IC50, CHO-TPO; cited from earlier work
TPO (LentiX-TPO) = test system: TPO (LentiX-TPO); parameters: method as in Dong et al. (2020); conditions: ref Dong et al. (2020); read-out: AUR assay IC50, LentiX-TPO; cited from earlier work
[1] = test system: peroxidase activity (TPO) in Nthy-ori 3-1 cell lysate
Method: (§2) Briefly, the cells were washed with phosphate-buffered saline (PBS), scraped, resuspended in PBS, and centrifuged for 5 min at 150 rcf. The supernatant was discarded, the pellet was lysed with 0.1% m/v sodium deoxycholate (DC, in PBS) and incubated on ice for 20 min. Lysed cells were centrifuged for 5 min at 12,000 rcf to extract the soluble protein fraction. The supernatant protein concentration was measured using the Bio-Rad DC-protein assay following the manufacturer’s protocol. The cell lysates were kept at − 80 °C for longer-term storage.
(§3) It was performed in the white 96-well plates with total volume of reaction mixture 200 μL per well containing 100 μL cell lysate with protein content of 0.12 mg/mL (final 0.06 mg/mL), 100 μl GNE solution [1 M glycine–NaOH (pH 9.0), 1 mM EDTA] with the test chemical in MeOH (1% MeOH final concentration). The plate was incubated for 30 min with gentle shaking at 37 °C.
(§4) For the data analysis, GraphPad Prism™ (GraphPad Software, San Diego, USA) was used for curve-fitting and IC50 or IC20 calculation. The signal (RLUs or fluorescence intensity) from the wells-containing cell lysate and chemical was background corrected (average RLUs or fluorescence intensity of lysate-free wells), then normalized to the solvent control (100% activity). Fold change of signal intensity was calculated by dividing the signal from cell lysate-containing wells by the signal from the background (average of cell lysate-free wells).

[2] = molecular target: T1, human TPO (HEK-TPOA7 cell lysate) (Homo sapiens, UniProt P07202); assay: AUR-TPO assay, HEK-TPOA7 cell lysate; format: biochemical
T1 construct: We have transfected the full length of TPO, which is 933 amino acids; expressed in transfected cells; host or cells: HEK293T (clone HEK-TPOA7), lentiviral transduction, CMV promoter
T1 sequence (P07202 19-933): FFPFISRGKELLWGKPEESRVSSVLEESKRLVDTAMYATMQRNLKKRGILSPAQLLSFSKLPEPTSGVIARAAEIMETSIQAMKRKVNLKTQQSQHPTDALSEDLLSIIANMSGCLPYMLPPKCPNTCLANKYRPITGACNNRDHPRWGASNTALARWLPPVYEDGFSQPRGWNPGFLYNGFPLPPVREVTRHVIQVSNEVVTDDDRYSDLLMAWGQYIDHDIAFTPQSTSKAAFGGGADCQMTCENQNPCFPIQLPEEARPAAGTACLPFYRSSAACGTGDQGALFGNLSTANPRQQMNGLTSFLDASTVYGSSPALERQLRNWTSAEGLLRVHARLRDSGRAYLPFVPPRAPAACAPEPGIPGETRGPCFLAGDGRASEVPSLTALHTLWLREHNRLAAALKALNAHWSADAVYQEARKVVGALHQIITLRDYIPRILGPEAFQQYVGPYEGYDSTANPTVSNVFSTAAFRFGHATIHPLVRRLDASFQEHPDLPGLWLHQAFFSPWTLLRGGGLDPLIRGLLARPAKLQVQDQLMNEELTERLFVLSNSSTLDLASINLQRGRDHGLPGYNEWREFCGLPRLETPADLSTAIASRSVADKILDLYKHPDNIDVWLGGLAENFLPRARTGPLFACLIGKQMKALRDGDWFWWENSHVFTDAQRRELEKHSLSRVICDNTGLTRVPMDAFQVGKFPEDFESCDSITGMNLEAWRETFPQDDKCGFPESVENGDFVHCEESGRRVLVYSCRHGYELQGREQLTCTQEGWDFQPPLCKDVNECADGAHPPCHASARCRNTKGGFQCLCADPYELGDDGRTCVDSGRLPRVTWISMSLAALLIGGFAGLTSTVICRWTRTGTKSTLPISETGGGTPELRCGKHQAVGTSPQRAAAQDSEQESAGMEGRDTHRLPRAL
Source text: (§1) A human TPO (hTPO) sequence was obtained from NCBI (NM_000547.5) and it was used for the production of lentiviral vector by VectorBuilder (Malvern, USA) containing the gene of interest under the transcriptional control of CMV promotor and EGFP gene linked with puromycin resistance gene under control of EFS promotor (pLV[Exp]-CMV > {NM_000547_5}-EFS > EGFP:T2A:Puro). The purified vector was used to produce lentiviral particles in Lenti-X cell line (TakaraBio Inc., Göteborg, Sweden). […] The medium was replaced 3 h after exposure. The conditioned lentiviral medium was harvested 48 and 72 h later, frozen and stored at − 80 °C. HEK293T cells were exposed to the conditioned lentiviral medium supplemented with Polybrene (10 µg/mL, Merck, Prague, Czech Republic). After 24 h, the medium was replaced with fresh medium with puromycin (Invivogen, Toulouse, France) as a selection factor. After the puromycin treatment, cells were sorted on a FACS sorter FACSAria Fusion (BD Biosciences, Prague, Czech Republic) to obtain GFP-expressing cell clones that were further characterized.
Lower final volume and concentration of H2O2 were used. […] Nonspecific influence of the chemicals themselves on the fluorescence signal was assessed by measuring the fluorescence signal after co-incubating the chemicals (30 min at 37 °C) with 0.3 µM Resorufin and 40 µM H2O2 with the same excitation/emission spectra as with the AUR.
Test of the effect of H2O2 concentration on the TPO activity measurement in the AUR assay: To assess the impact of H2O2 level on the AUR assay, a subset of chemicals (Table S6) was subjected to analysis at two H2O2 concentrations, 40 µM and 300 µM, to evaluate any variance in response.

[3] = test system: peroxidase activity (TPO) in FRTL-5 cell lysate; assay: TPO luminol (Lumi) assay, FRTL-5 cell lysate
Method: The FRTL-5 (RRID:CVCL_0265), a spontaneously immortalized rat thyroid follicular cell line obtained from Sigma-Aldrich, was cultured in Coon F12 medium (Sigma-Aldrich) supplemented with L-Glutamine, hydrocortisone, somatostatin, TSH and 10% FBS.
(§5) HEPES solution (Sigma-Aldrich) was added to balance the pH.
as §2, §3
For the data analysis, GraphPad Prism™ (GraphPad Software, San Diego, USA) was used for curve-fitting and IC50 or IC20 calculation. The signal (RLUs or fluorescence intensity) from the wells-containing cell lysate and chemical was background corrected (average RLUs or fluorescence intensity of lysate-free wells), then normalized to the solvent control (100% activity).

[4] = molecular target: T2, peroxidase activity (human TPO) in HEK-TPOA7 cell lysate (Homo sapiens, UniProt P07202); assay: TPO luminol (Lumi) assay, HEK-TPOA7 cell lysate; format: biochemical
T2 construct: We have transfected the full length of TPO, which is 933 amino acids; expressed in transfected cells; host or cells: HEK293T (clone HEK-TPOA7), lentiviral transduction, CMV promoter
T2 sequence (P07202 19-933): T1 sequence (P07202 19-933)
Source text: as §1

[5] = test system: peroxidase activity (TPO) in Nthy-ori 3-1 cell lysate; assay: TPO luminol (Lumi) assay, Nthy-ori 3-1 cell lysate; conditions: read-out: Lumi assay IC50, Nthy-ori 3-1
Method: as §2, §3, §4

[6] = test system: peroxidase activity in HEK293T cell lysate (no TPO expression); assay: TPO luminol (Lumi) assay, HEK293T cell lysate
Method: The HEK293T (RRID:CVCL_0063), a human embryonal kidney SV40 transformed immortalized cell line obtained from ATCC, as well as the derived TPO-transfected HEK293T cell line, were cultured in DMEM High Glucose media (Biosera, BioTech) supplemented with 10% FBS.
as §5, §2, §3, §4

[7] = test system: TPO (rat thyroid microsomes); parameters: method as in Friedman et al. 2016; conditions: microsomes from 120 pooled rat thyroids; ref Friedman et al. 2016; cited from earlier work
TPO (Nthy-ori 3-1) = test system: TPO (Nthy-ori 3-1); parameters: method as in Jomaa et al. (2015); conditions: ref Jomaa et al. (2015); read-out: AUR assay IC50, Nthy-ori 3-1; cited from earlier work
[8] = test system: peroxidase activity (TPO) in Nthy-ori 3-1 cell lysate; parameters: method as in Jomaa et al. (2015); conditions: ref Jomaa et al. (2015); read-out: Lumi assay IC50, Nthy-ori 3-1; cited from earlier work
[9] = Solubility of triclosan (PubChem); format: physicochemical; conditions: 20 °C; equivalent of 10 mg/L; ref PubChem
[10] = current study, n ≥ 3, pH 7.2, 40 µM H2O2, NA = not active up to the highest tested concentration, read-out: AUR assay IC50, HEK-TPOA7
[11] = lysate of cells with hematin pre-treatment, unit inferred, read-out: IC50, HEK-TPOA7, AUR assay, hematin +
[12] = lysate of cells without hematin pre-treatment, unit inferred, read-out: IC50, HEK-TPOA7, AUR assay, hematin -
[13] = read-out: IC50, AUR assay, H2O2 300uM, HEK-TPOA7 lyzate, n=2, unit not given in Table S6
[14] = read-out: IC50, FRTL-5, Lumi assay, hematin +, lysate of cells with hematin pre-treatment, unit inferred
[15] = read-out: Lumi assay IC50, FRTL-5, current study, n ≥ 3, NA = not active up to the highest tested concentration
[16] = current study, n ≥ 3, hematin pre-treated cells, NA = not active up to the highest tested concentration, read-out: Lumi assay IC50, HEK-TPOA7
[17] = read-out: Lumi assay IC50, HEK293T, current study, PTU n = 2
[18] = lysate of cells without hematin pre-treatment, unit inferred, read-out: IC50, HEK-TPOA7, Lumi assay, hematin -
[19] = IC50, AUR assay, H2O2 300uM, HEK-TPOA7 lyzate, n=2, unit not given in Table S6
[20] = IC20 shown where IC50 was not reached, read-out: AUR assay IC20, HEK-TPOA7

| IC50 [1] [µM] | Compound | IC50 (TPO (CHO-TPO)) [µM] | IC50 (TPO (LentiX-TPO)) [µM] | IC50 [2, 10] [µM] | IC50 [2, 11] [µM] | IC50 [2, 12] [µM] | IC50 [3, 14] [µM] | IC50 [3, 15] [µM] | IC50 [4, 16] [µM] | IC50 [6, 17] [µM] | IC50 [2, 19] [µM] | further results |
| --- | --- | --- | --- | --- | --- | --- | --- | --- | --- | --- | --- | --- |
|  | CC(C)(c1cc(Br)c(O)c(Br)c1)c1cc(Br)c(O)c(Br)c1 [TBBPA, Tetrabromobisphenol A] |  |  | 8.65 | 8.65 | 8.2 | 190 | 130 | 90.9 | 64.4 |  | IC50 [5]: 77.2 µM; IC50 [2, 13]: 6.5 µM; IC50 ([6]; read-out: IC50, HEK293T, Lumi assay, hematin +, lysate of cells with hematin pre-treatment, unit inferred): 87.1 µM; IC50 [4, 18]: 107 µM |
|  | O=C(O)C(F)(F)C(F)(F)C(F)(F)C(F)(F)C(F)(F)C(F)(F)C(F)(F)F [PFOA, Perfluorooctanoic acid] |  |  |  |  |  |  |  |  |  |  | IC20 [2, 20]: 5.15 µM; IC20 ([4]; IC20 shown where IC50 was not reached): 110 µM |
|  | S=C1NCCN1 [ETU, Ethylene thiourea] |  |  |  |  |  |  |  |  |  |  | TPO inhibition in rat thyroid-based AUR assay (ToxCast) [7]: quantifiable IC50 |
| 3.91 | Cn1cc[nH]c1=S [MMI, Methimazole, reference compound] | 0.49 | 0.23 | 1.5 | 1.5 | 1.12 | 3.59 | 3.69 | 3.24 |  | 1.33 | IC50 (TPO (Nthy-ori 3-1)): 2.7 µM; IC50 [8]: 4 µM |
|  | Cc1cc(NS(=O)(=O)c2ccc(N)cc2)no1 [SMX, Sulfamethoxazol, reference compound] |  |  |  |  |  |  |  |  |  |  | IC20 ([2]; HEK-TPOA7 lyzate, n=2, starred chemicals, unit not given in Table S6, read-out: IC20, AUR assay, H2O2 300uM): 140 µM; IC20 [2, 20]: 101 µM |
| 120 | CC(C)(c1ccc(O)cc1)c1ccc(O)cc1 [BPA, Bisphenol A] |  |  |  | 10.6 | 8.29 | 166 | 143 | 130 | 122 | 10.9 | IC50 [4, 18]: 107 µM |
|  | Oc1cc(Cl)ccc1Oc1ccc(Cl)cc1Cl [TCS, Triclosan] | > 253 | > 253 |  | 197 |  | 46.2 | 67.9 | 38.4 | 47.8 | 165 | IC50 [5]: 51 µM; IC50 ([2]; HEK-TPOA7, pH 8.8 (SD = 14), read-out: AUR assay IC50 at higher pH): 72.7 µM; solubility (equivalent) [9]: 34.5 µM |
| 11.7 | CCCc1cc(=O)[nH]c(=S)[nH]1 [PTU, 6-propylthiouracil, reference compound] | 4.9 | 10.4 |  |  |  | 12.5 | 13.2 |  | 18.9 |  | IC50 (TPO (Nthy-ori 3-1)): 35.2 µM; IC50 [8]: 16.4 µM |

| Compound | IC50 [1] [µM] | IC50 (TPO (CHO-TPO)) [µM] | IC50 (TPO (LentiX-TPO)) [µM] | IC50 [2, 10] [µM] | IC50 [2, 11] [µM] | IC50 [2, 12] [µM] | IC50 [3, 14] [µM] | IC50 [3, 15] [µM] | IC50 [4, 16] [µM] | IC50 [6, 17] [µM] | IC50 [2, 19] [µM] | further results |
| --- | --- | --- | --- | --- | --- | --- | --- | --- | --- | --- | --- | --- |
| O=C(c1ccc(O)cc1O)c1ccc(O)cc1O [BP2, 2,2′-4,4′-tetrahydroxy benzophenone] | 38.5 | 0.2 | 0.24 | 0.56 | 0.56 | 0.48 | 31.4 | 29.6 | 20.2 |  |  | IC50 [2, 13]: 0.64 µM |
| Oc1cccc(O)c1 [RSC, Resorcinol] | 13.8 | 0.05 | 0.06 | 0.358 | 0.36 | 0.36 | 13.9 | 15.7 | 17.9 |  | 0.61 | IC50 ([2]; IC50, AUR assay, H2O2 40uM, HEK-TPOA7 lyzate, n=2, unit not given in Table S6): 0.36 µM |
